According to patent US20220023278A1, “ANTI-AGING METHOD COMPRISING APPLYING JWA GENE” (Simcere Pharmaceutical Co., Ltd., priority 2019, published 2022):

Columns and labels:
JWA gene = test: JWA reporter gene assay (dual-luciferase) in HBE cells; format: cell-based, human; conditions: 24 hours treatment
Description: 2012 bp upstream of the JWA transcription start site (referred to “JWA promoter sequence” hereafter) was amplified by RT-PCR according to the human-derived JWA promoter sequence (FIG. 35), and inserted into a pGL3-Neo vector by using KpnI and NheI restriction enzyme sites, thereby yielding a recombinant vector (FIG. 36) containing the JWA promoter sequence. The recombinant vector was transferred into E. coli. (DH5a). Positive clones were sequenced to verify accuracy, thereby obtaining a neomycin-resistant reporter plasmid containing the JWA gene promoter. The plasmid and corresponding strains were stored at −70° C. for use.
Human bronchial epithelial (HBE) cells were cultured at a density of 3000 cells per well in a 384-well plate and allowed to adhere together. […]
After incubation, the 384-well plate was taken out, allowing the reagents and cells to equilibrate to room temperature of 18-22° C. […] The luciferase activity was analyzed by using a Dual-Luciferase Reporter Assay kit (Promega) and measured by a chemiluminescence analyzer (3010 C chemiluminescence analyzer). […]

JWA protein = test: Western blot of JWA protein expression in HBE cells; format: cell-based, human; conditions: 24 hours and 48 hours, 1, 10, and 100 μmol/L
Method: The HBE cells in the logarithmic growth phase were digested, plated at a density of 5×10^5/cell onto a 60 mm cell culture dish, and incubated in different doses of the compound JAC-4 for 24 hours or 48 hours, respectively. The cells were then treated with 0.18 mL of radio immunoprecipitation assay (RIPA, containing 0.5% PMSF) cell lysate for protein extraction, and centrifuged at 12,000×g for 15 minutes. The supernatant was collected and the protein concentration was measured. The proteins were heated and separated by electrophoresis through 12.5% polyacrylamide gel. 70 μg of the heated proteins was loaded into each well and separated by electrophoresis at 60 V for 30 minutes and 90 V for 1-1.5 hours. The proteins were then transferred from the gel to a PVDF membrane using a mini-genie transfer apparatus. The PVDF membrane was blocked with 5% skim milk, incubated at room temperature for 1-2 hours, and washed with TBST (containing 0.1% Tween 20). The washing step was repeated 3 times for 5 minutes each time. The blocked membrane was incubated overnight with primary antibody at 4° C., and then washed with TBS (containing 0.1% Tween 20). The washing step was repeated 3 times for 5 minutes each time. The blocked membrane was incubated at room temperature for 1-2 hours with secondary antibody, and then washed with TBST (containing 0.1% Tween 20). […]

[1] = tested on: naturally aging mice (24 months old); test: Feeding naturally aging 24-month-old mice with test feed containing 2 g/kg JAC-4; format: in vivo; conditions: test feed 2 g/kg, 10 weeks
Method: Feeding 24-month-old mice with the test feed containing 2 g/kg of the compound JAC-4 (equivalent to 200 mg JAC-4/kg body weight).
Mice were housed in the same conditions as Example 12. After feeding for 10 weeks, the mice were anesthetized. The whole blood was collected, allowed to stand for 30 min at room temperature, and centrifuged at 3000 rpm for 15 min. The supernatant, i.e., serum, was collected and analyzed by Hitachi 7100 automatic biochemical analyzer. Liver, spleen and kidney tissues of the mice were isolated on ice, fixed with 4% paraformaldehyde, or frozen at −80° C. The fixed tissues were processed into a paraffin section or frozen section with a thickness of 5 μm, stained with HE to visualize the morphological and pathological changes in the liver, spleen and kidney. The liver section was stained with oil red O for fat deposition and stained with periodic acid-Schiff (PAS) for glycogen. Total protein was extracted from the liver and spleen frozen at −80° C., and cell membrane proteins were extracted from the liver frozen at −80° C. Western blot was performed to detect the expression of JWA protein in liver and spleen tissues, the expression of p-AKT, AKT, p-GSK3β and GSK3β proteins in liver tissues, and the expression of glucose transporter (Glut 2) in cell membrane proteins of liver tissues. A biochemical kit (purchased from Nanjing Jiancheng Bioengineering Institute, Nanjing, China) was used to detect the activities of Superoxide dismutase (SOD), as well as the main rate-limiting enzymes of glucose and lipid metabolism in liver tissues. In all the experiments attention was paid to ethical guidelines for the investigation of experimental pain in conscious animals.

[2] = HPLC analysis of compound in processed, Co60-sterilized test feed; format: physicochemical; conditions: pelleted feed, Co60 irradiation
Description: The compound JAC-4 (purity>99%) was mixed with an equal amount of standard mouse feed. Specifically, 1 g of compound JAC-4 was thoroughly mixed with 1 g of basic feed materials; 2 g of the mixture was thoroughly mixed with 2 g of basic feed materials; 4 g of the mixture was thoroughly mixed with 4 g of basic feed materials, and so on, thereby obtaining two test feeds respectively containing 1 g/kg and 2 g/kg of the compound JAC-4. According to the standard operating procedures for feed, the test feeds were processed into pellets, vacuum packaged, and sterilized by a Co60 source irradiation. The feed processing was entrusted to a professional company. To verify that the compound JAC-4 was evenly distributed in the mixed feeds and not damaged in the structure during processing, the sterilized feeds were randomly sampled and fully extracted with organic solvents. The content of the compound JAC-4 was then measured by High Performance Liquid Chromatography and it was confirmed that the compound JAC-4 was not damaged and the content thereof met the requirements (FIGS. 38-40).

12-month-old mice = test: Feeding 12-month-old mice with test feed containing 1 g/kg JAC-4; format: in vivo
Method: 12-month-old mice were housed in specific pathogen free (SPF) conditions at an ambient temperature of 22±2° C. and a relative humidity of 40%-60%, in day/night cycles of 12 h/12 h simulated by lighting. Mice were fed with sterile acidified water, common feeds (without compound JAC-4) or test feeds (with compound JAC-4).
In general, the daily feed consumption of each mouse is about 10% of its body weight. Therefore, when the mice consume 1 g/kg of JAC-4 experimental feed, it is equivalent to the daily intake of 100 mg/kg of JAC-4. The mice were weighed every two weeks from the start of feeding and scored on the aging appearance every two weeks from the sixth week. The higher the score, the more obvious the aging appearance. The mice were photographed monthly and changes in appearance were recorded. In all the experiments attention was paid to ethical guidelines for the investigation of experimental pain in conscious animals.

[3] = test feed 1 g/kg vs common feed

c1ccc(CSc2nnc(C3COc4ccccc4O3)o2)nc1 (centres unmarked) [JAC-4]
activation of JWA gene expression (luciferase reporter) (JWA gene): sharp dose-effect relationship | expression level of JWA protein (JWA protein): enhanced | SOD in the liver [1]: increase | SOD in the serum [1]: increase | glycogen synthase in the liver [1]: increased | rate-limiting enzyme related to glucose decomposition in the liver [1]: increased | serum glucose [1]: significantly reduced | serum triglycerides [1]: significantly reduced | age-related inflammatory cell infiltration around the central vein of the liver ([1]; HE staining): significantly reduced | morphology of liver, kidney and spleen ([1]; HE staining): did not produce observable abnormal changes | glycogen synthesis in the liver ([1]; PAS staining): increased | AKT phosphorylation in liver ([1]; Western blot): activated | GSK3β in liver ([1]; Western blot): inhibited | Glut 2 expression in liver cell membranes ([1]; Western blot): increased | expression of JWA protein in liver tissue ([1]; Western blot): increased significantly | expression of JWA protein in spleen tissue ([1]; Western blot): increased significantly | integrity of compound in feed after processing and sterilization [2]: not damaged | body weight (12-month-old mice; 22nd week, test feed 1 g/kg (100 mg/kg daily) vs common feed): no statistical difference | hair loss (12-month-old mice; [3]): significant decrease | score of aging appearance (12-month-old mice; [3]): significant decrease
